Values quoted from earlier work as cited in patent publication US20250275939A1, “CO-CRYSTALS” (UNIVERSITY OF IOWA RESEARCH FOUNDATION, priority 2024, published 2025).
Like-named read-outs stand apart in the source and are kept apart here. Peptide text beside a SMILES is read from it.

Legend:
[1] = in vivo
[2] = humans, adults and children
[3] = humans, after a single oral dose
[4] = in vivo; remark: listed apart in the source

Cc1nc(C)c(C)nc1C [TMP, tetramethyl pyrazine]
penetration of the blood-brain barrier [1]: can penetrate the blood-brain barrier

COC(=O)[C@H](Cc1ccccc1)NC(=O)[C@@H](N)CC(=O)O [aspartame, Aspartame] (H-Asp-Phe-OMe)
acceptable daily intake ([2]; Europe): 40 mg/kg bodyweight | acceptable daily intake ([2]; United States): 50 mg/kg bodyweight

O=c1c(O)c(-c2ccc(O)c(O)c2)oc2cc(O)cc(O)c12 [quercetin, Quercetin]
oral bioavailability [3]: ~2%

C1N2CN3CN1CN(C2)C3 [Methenamine]
serum enzyme elevations / clinically apparent acute liver injury [4]: has not been linked to serum enzyme elevations or to instances of clinically apparent acute liver injury
